From paper PMC6522510 (Nature Communications, 2019)

Experiments:
Parameters in all cases: species or system AML cell lines (8); Primary HTS, single concentration about 10 uM, Cell Titer Glo viability; log10 luminescence, per cent inhibition relative to cycloheximide control
Settings in all cases: 72 h, relative to cycloheximide control, log10 luminescence; inhibitor
[1] = test system: ML-2
[2] = test system: U937
[3] = test system: CMK
[4] = test system: CHRF288-11
[5] = test system: M07e
[6] = test system: MV4-11
[7] = test system: MOLM-13
[8] = test system: CMS

Structure (SMILES)	ML-2 %inh [1]	U937 %inh [2]	CMK %inh [3]	CHRF288-11 %inh [4]	M07e %inh [5]	MV4-11 %inh [6]	MOLM-13 %inh [7]	CMS %inh [8]
O=C1NC(=NCc2ccccn2)S/C1=C\c1ccc2ncccc2c1 [SJ000581006-1]	-0.04041%	2.876%	2.326%	-1.509%	3.262%	1.986%	6.642%	-0.1401%
Cn1cc(C2=C(c3c4n(c5ccccc35)CCCCC4)C(=O)NC2=O)c2ccccc21 [SJ000581007-1]	-3.106%	-0.6469%	2.966%	-2.847%	0.1866%	-1.05%	-0.4157%	-2.233%
Cn1cc(C2=C(c3cccc(NCC(O)CO)c3)C(=O)NC2=O)c2cc(Cl)ccc21 (stereo not shown) [SJ000581009-1]	10.75%	8.397%	105.4%	28.92%	19.12%	70.02%	37.38%	98.55%
Cn1cc(C2=C(c3cn(CCCCCO)c4ccccc34)C(=O)NC2=O)c2ccccc21 [SJ000581010-1]	-1.548%	-0.3264%	27.55%	17.96%	1.341%	-1.111%	6.709%	1.022%
Cn1cc(C2=C(c3cn(CCCN=C(N)N)c4ccccc34)C(=O)NC2=O)c2ccccc21 [SJ000581011-1]	1.035%	-0.6406%	-5.09%	6.037%	-0.6273%	6.352%	3.172%	-3.925%
Cc1cc(C)c2c(n1)sc1c(N)ncnc12 [SJ000581012-1]	-0.0326%	3.328%	-2.956%	1.655%	-1.463%	-4.498%	-1.383%	2.019%
COc1cc[nH]c1/C=C1\C(=O)Nc2ccc(F)c(C#CC3(O)CCNCC3)c21 [SJ000581013-1]	57.56%	80.6%	93.46%	71.86%	109.1%	81.96%	105.4%	92.23%
COc1cccc(C(=O)c2sc(Nc3ccc(N4CCN(C(C)C)CC4)cc3)nc2N)c1 [SJ000581014-1]	8.496%	25.4%	33.11%	15.68%	8.945%	15.32%	103.8%	7.49%
O=C1NC(=NCCc2cccs2)S/C1=C\c1ccc2ncccc2c1 [SJ000581015-1]	1.872%	4.783%	2.413%	-3.354%	0.2412%	1.469%	1.226%	2.886%
Cn1cc(C2=C(N3CCOCC3)C(=O)NC2=O)c2ccccc21 [SJ000581016-1]	1.058%	-0.03629%	-3.99%	-0.4853%	-1.546%	-3.16%	-0.4077%	2.558%
Cn1cc(C2=C(c3c4n(c5ccccc35)CCN(C(N)=S)C4)C(=O)NC2=O)c2ccccc21 [SJ000581017-1]	14.21%	15.09%	110.3%	61.39%	14.07%	52.04%	83.86%	66.21%
Nc1c(C(=O)c2ccc(CCCN3CCOCC3)cc2)cnn1-c1ccc(F)cc1 [SJ000581018-1]	1.663%	1.825%	0.7543%	6.032%	0.8427%	0.41%	3.662%	2.2%
O=C1NC(=N[C@@H](CO)Cc2ccccc2)S/C1=C\c1ccc2ncccc2c1 [SJ000581019-1]	8.345%	18.33%	99.34%	42.52%	15.21%	35.98%	62.37%	8.828%
O=C1NC(=N[C@H](CO)Cc2ccccc2)S/C1=C\c1ccc2ncccc2c1 [SJ000581019-2]	1.703%	7.541%	5.29%	7.52%	7.526%	1.969%	1.796%	2.2%
Nc1c(C(=O)c2cccc(OC[C@H](O)CO)c2)cnn1-c1ccc(F)cc1 [SJ000581020-1]	2.034%	0.3347%	3.324%	2.337%	2.292%	0.9707%	0.004587%	0.9092%
COc1ccc(F)cc1C(=O)c1cnc(NC2CCN(S(C)(=O)=O)CC2)nc1N [SJ000581021-1]	16.42%	26.91%	28.45%	14.05%	26.32%	23.41%	27.57%	25.29%
Cn1cc(C2=C(c3c4n(c5ccccc35)CCC(CN)CC4)C(=O)NC2=O)c2ccccc21 (stereo not shown) [SJ000581022-1]	3.751%	3.425%	2.783%	0.7803%	8.854%	5.378%	2.979%	0.653%
CS(=O)(=O)CCn1c(=O)c(Oc2ccc(F)cc2F)cc2cnc(NC3CCOCC3)nc21 [SJ000581023-1]	0.4592%	-0.5257%	0.4611%	8.185%	1.483%	1.997%	-0.00779%	-0.4321%
Cn1c(=O)c(Oc2ccc(F)cc2F)cc2cnc(NC(CO)CO)nc21 [SJ000581024-1]	0.9662%	3.277%	-1.172%	-0.0002567%	1.393%	1.357%	0.3413%	-1.976%
CC(=O)N[C@@H](Cc1ccc(OP(=O)(O)O)cc1)C(=O)N[C@H]1CCC(=O)N2CCC[C@@H](C(=O)NCc3ccccc3)N2C1=O [SJ000581025-1]	0.2617%	0.2421%	-3.468%	3.231%	-1.273%	-4.371%	0.5747%	0.9205%
